{
  "source": "patent US20120093836A1",
  "about": "“PHARMACEUTICAL COMPOSITIONS FOR TREATING METASTASIS” (UNIVERSIDAD DEL PAIS VASCO, priority 2009, published 2012)",
  "key": {"[1]": {"test_system": "adhesion of MB16 cells to the HSE (hepatic sinusoidal endothelium)", "assay": "Tumor adhesion assay for C. albicans-induced tumor adhesion (fluorescence, BCECF-AM labelled MB16 cells on HSE)", "assay_type": "cell-based, mouse", "details": "IL-1β receptor blocked, added 15 minutes before MNF", "experimental": "The adhesion was measured using the method based on the fluorescence measurement. The MB16 cells were resuspended in a solution of 2′,7′-bis-(2-carboxyethyl)-5.6-carboxyfluorescein acetoxymethyl ester (BCECF-AM) in DMEM-HEPES (40 μg/ml) and were incubated for 20 minutes at 37° C. The cells were then washed and resuspended in DMEM-HEPES at a concentration of 2×10^5 cells/ml. The autofluorescence of the HSE culture was determined.\nSubsequently, the HSE cells were incubated with different strains and extracts of C. albicans (5×10^5 cells/well), MNF (2 μg carbohydrate/ml), EC (2 μg carbohydrate/ml), PF (2 μg protein/ml) or commercial mannan from Saccharomyces cerevisiae (100 μg/ml) for 8 hours. The non-treated HSE cells received basal medium as control. […]\nOnce the time of adhesion ended, the co-cultures were excited with light of wavelength 488 nm and the fluorescence emitted at 530 nm by the BCEF incorporated to the tumor cells in the scanning fluorometer in plate was recorded. […] Subsequently, 1 ml of the same adhesion medium was added in each well and the fluorescence emitted was read. Thus a relative value (in arbitrary units of fluorescence intensity) could be determined with respect to the number of tumor cells added. […]"}, "TNF-α": {"test_system": "TNF-α", "assay": "Production of TNF-α by the HSE (ELISA of supernatants)", "assay_type": "cell-based, mouse", "details": "IL-1β receptor blocked", "experimental": "The concentration of TNF-α and IL-18 in the supernatants was determined using a monoclonal antibody-based commercial ELISA kit (R&D Systems) following the manufacturer's instructions. The tumor adhesion assays of C. albicans-induced tumor adhesion and B16 melanoma tumor cell proliferation assays in response to C. albicans (both described above) were performed in collaboration with the company, Pharmakine S.L.\nThe stimulation of the endothelium causes a cascade of cytokine which ends with the expression of adhesion molecules such as the VCAM-1 (Mendoza (cited at supra) 1998, Vidal-Vanaclocha et al. 2000. PNAS, 97: 734-739) wherein the tumor cells are adhered. To know whether the process triggered by the MNF which as a consequence caused the increase of the adhesion of MB16 cells to the HSE was also mediated by cytokines, the concentration of TNF-α, the cytokine which is described as one of the first and most important cytokines acting in the proinflammatory cascade described in the HSE was measured."}},
  "data": [
    {"substance": "IL-Ra: IL-1β receptor antagonist molecule (Amgen Biologicals)", "values": [
      {"measurement": "effect on the increase of the tumor adhesion to the HSE induced by the MNF (in words)", "setting": "[1]", "result": "completely inhibits"},
      {"measurement": "effect on the release of TNF-α by the endothelium stimulated by the mannoproteins of C. albicans (in words)", "setting": "TNF-α", "result": "partially reduces"}
    ]}
  ]
}
